In article PMC8857453 (Biotechnology Reports, 2022) one finds Km data, which are given here for four molecules.

Test [1] relates to Aps-t.
Test [2] has as its system Aps-t. Particulars: 50 mM MES pH 6, 100 mM NaCl, 1 mM MgCl2, 37 °C; pNPP stock in 0.1 M sodium acetate pH 4.5.

The structures appear in SMILES notation. Like-named read-outs stand apart in the source and are kept apart here.

What is called Km is the concentration of substrate that gives half-maximal velocity. As for `Nc1ncnc2c1ncn2[C@@H]1O[C@H](COP(=O)(O)OP(=O)(O)O)[C@@H](O)[C@H]1O` [ADP], the Km in test [1] stood at 190 ± 10 µM.
For `Nc1ncnc2c1ncn2[C@@H]1O[C@H](COP(=O)(O)O)[C@@H](O)[C@H]1O` [AMP], the Michaelis constant (Km) in test [1] came to 270 ± 20 µM.
As for `Nc1ncnc2c1ncn2[C@@H]1O[C@H](COP(=O)(O)OP(=O)(O)OP(=O)(O)O)[C@@H](O)[C@H]1O` [ATP], in test [1], the Km came to 1000 ± 120 µM.
With `O=[N+]([O-])c1ccc(OP(=O)(O)O)cc1` [pNPP], the Km in test [2] was determined as 94 ± 14 µM.
